Measurements taken from patent US8791133B2, “Pyridylvinylpyrazoloquinolines as PAR1 inhibitors” (Sanofi, priority 2010, dated 2014).

Target: T1, PAR1 (Homo sapiens, UniProt P25116)
T1 construct: endogenous in cells; host or cells: washed blood platelets from healthy volunteers
T1 sequence (P25116 22-425): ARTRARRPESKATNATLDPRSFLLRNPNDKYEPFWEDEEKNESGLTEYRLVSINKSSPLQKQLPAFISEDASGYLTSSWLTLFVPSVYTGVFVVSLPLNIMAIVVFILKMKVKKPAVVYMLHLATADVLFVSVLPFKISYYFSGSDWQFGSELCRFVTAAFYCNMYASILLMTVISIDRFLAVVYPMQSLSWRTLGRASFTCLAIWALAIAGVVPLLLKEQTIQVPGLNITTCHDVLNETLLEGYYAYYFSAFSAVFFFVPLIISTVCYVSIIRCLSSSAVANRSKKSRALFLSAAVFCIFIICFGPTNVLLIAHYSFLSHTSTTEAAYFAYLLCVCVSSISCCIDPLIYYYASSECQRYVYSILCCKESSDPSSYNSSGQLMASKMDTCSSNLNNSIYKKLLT
Assay: Inhibition of PAR1-mediated platelet aggregation induced by TRAP (thrombin receptor-activating peptide), 96-well format
Assay type: cell-based
Conditions: washed platelets from healthy volunteers; TRAP as agonist; AUC of kinetics at 650 nm, 37° C., 20 minutes
Protocol: PAR1 Determination Method: Inhibition of PAR1-Mediated Platelet Aggregation
The pharmacological testing of the substances took place in platelet aggregation induced by TRAP (thrombin receptor-activating peptide) in 96-well format. For this purpose, blood was taken from healthy volunteers in 20 ml syringes containing 2 ml of 3.13% strength sodium citrate solution. After centrifugation at 150×g for 20 minutes, the platelet-rich plasma (PRP) was separated off and mixed with 1 μl of PGE1 solution (500 μg/ml in ethanol)/ml of PRP. Incubation at RT for 5 minutes was followed by centrifugation at 120×g for 15 minutes to remove the leukocytes. The leukocyte-free PRP was transferred in 5 ml portions into 15 ml PP tubes and centrifuged at 360×g for 15 minutes in order to pellet the platelets. The plasma was then decanted off and the platelet sediment from 5 ml of PRP was resuspended in 1 ml of Tyrode's (120 mM NaCl, 2.6 mM KCl, 12 mM NaHCO3, 0.39 mM NaH2PO4×H2O, 10 mM HEPES, 0.35% BSA (Bovine Serum Albumin), 5.5 mM glucose, pH 7.4) and adjusted with Tyrode's to a platelet count of 3×10^5/microliter (μl). 13 μl of this cell suspension were then mixed with 866 μl of 10 mM CaCl2 solution, and 120 μl thereof were pipetted into each well of a 96-well plate containing 15 μl of the substance to be tested. After incubation at RT in the dark for 30 minutes, 15 μl of a TRAP solution (70-100 μM) were added as agonist, and kinetics were recorded at 650 nm in a SpectraMax 340 at 37° C. for 20 minutes while shaking. The areas under the curves of negative control (Tyrode's/DMSO) and positive control (15 μl of agonist/DMSO) were calculated and the difference was fixed as the 100% value. The substances to be tested were pipetted as serial dilutions in duplicate determination, the AUC was likewise determined for each substance concentration, and the % inhibition of the AUC compared with the control was calculated. On the basis of the % inhibition, the IC50 was calculated by nonlinear regression analysis according to the 4-parameter equation.

Structure (SMILES)	IC50 [nM]
CC(C)(CO)CNC(=O)c1n[nH]c2c1C(C=Cc1ccc(-c3cccc(F)c3)cn1)C1=C(CC3(CCC3)CC1=O)N2 (stereo not shown) [Example 36]	460
COCCNC(=O)c1n[nH]c2c1C(/C=C/c1ccc(-c3cccc(F)c3)cn1)C1=C(CC3(CCC3)CC1=O)N2 (stereo not shown) [Example 46]	1500
CC(C)C1CC(=O)C2=C(C1)Nc1[nH]nc(C(=O)NCC3CC3)c1C2/C=C/c1ccc(-c2cccc(F)c2)cn1 (mixture of isomers) [Example 10, 4-{(E)-2-[5-(3-Fluorophenyl)pyridin-2-yl]vinyl}-7-isopropyl-5-oxo-4,5,6,7,8,9-hexahydro-1H-pyrazolo[3,4-b]quinoline-3-cyclopropylmethylcarboxamide]	1390
CC(C)NC(=O)c1n[nH]c2c1C(/C=C/c1ccc(-c3cccc(F)c3)cn1)C1=C(CC(C)(C)CC1=O)N2 (stereo not shown) [Example 8, 4-{(E)-2-[5-(3-Fluorophenyl)pyridin-2-yl]vinyl}-7,7-dimethyl-5-oxo-4,5,6,7,8,9-hexahydro-1H-pyrazolo[3,4-b]quinoline-3-isopropylcarboxamide]	1880
CN1C2=C(C(=O)CC3(CCCC3)C2)C(/C=C/c2ccc(-c3cccc(F)c3)cn2)c2c(C(=O)NCC(C)(C)C)n[nH]c21 (stereo not shown) [Example 37]	710
CC(C)(C)CNC(=O)c1n[nH]c2c1C(/C=C/c1ccc(-c3cccc(F)c3)cn1)C1=C(CC(C)(C)CC1=O)N2 (stereo not shown) [Example 15, 4-{(E)-2-[5-(3-Fluorophenyl)pyridin-2-yl]vinyl}-7,7-dimethyl-5-oxo-4,5,6,7,8,9-hexahydro-1H-pyrazolo[3,4-b]quinoline-3-(2,2-dimethylpropyl)carboxamide]	4230
CC1CC(=O)C2=C(C1)Nc1[nH]nc(C(=O)NCC3CC3)c1C2/C=C/c1ccc(-c2cccc(F)c2)cn1 (single isomer, unassigned) [diastereomer 1 from example 13]	5120
COC(C)(C)CNC(=O)c1n[nH]c2c1C(C=Cc1ccc(-c3cccc(F)c3)cn1)C1=C(CC3(CCCC3)CC1=O)N2 (stereo not shown) [Example 39]	450

Second part, the compound after the results:

IC50 [nM]	Structure (SMILES)
910	CC(C)(CN)CNC(=O)c1n[nH]c2c1C(/C=C/c1ccc(-c3cccc(F)c3)cn1)C1=C(CC3(CCCC3)CC1=O)N2 (stereo not shown) [Example 50]
840	CC1(CNC(=O)c2n[nH]c3c2C(/C=C/c2ccc(-c4cccc(F)c4)cn2)C2=C(CC4(CCCC4)CC2=O)N3)COC1 (stereo not shown) [Example 54]
< 400	O=C1CC2(CCCC2)CC2=C1C(C=Cc1ccc(-c3cccc(F)c3)cn1)c1c(C(=O)NCC3(CO)CCC3)n[nH]c1N2 (stereo not shown) [Example 33]
380	CC(C)(CO)CNC(=O)c1n[nH]c2c1C(C=Cc1ccc(-c3cccc(F)c3)cn1)C1=C(CC3(CCCC3)CC1=O)N2 (stereo not shown) [Example 31]
1200	COCCNC(=O)c1n[nH]c2c1C(/C=C/c1ccc(-c3cccc(F)c3)cn1)C1=C(CC3(CCCC3)CC1=O)N2 (stereo not shown) [Example 43]
410	O=C1CC2(CCCC2)CC2=C1[C@H](/C=C/c1ccc(-c3cccc(F)c3)cn1)c1c(C(=O)NCC3(CO)CC3)n[nH]c1N2 [Example 35]
820	O=C1CC2(CCCC2)CC2=C1C(/C=C/c1ccc(-c3cccc(F)c3)cn1)c1c(C(=O)NC[C@H]3C[C@@H](O)C3)n[nH]c1N2 (stereo partly shown) [Example 38]
1400	O=C1CC2(CCCC2)CC2=C1C(/C=C/c1ccc(-c3cccc(F)c3)cn1)c1c(C(=O)NC3CCCC3)n[nH]c1N2 (stereo not shown) [Example 47]
